Source: patent US12655145B2, “P2X3 modulators” (GlaxoSmithKline Intellectual Property (No. 3) Limited, priority 2020, dated 2026)

The compounds below were run against T1, P2X3 (Homo sapiens, UniProt P56373) (assay: P2X3 Antagonist Assay (FLIPR calcium, Fluo-8, HEK293 cells transfected with human ion channel cDNAs, αβ-meATP stimulation)). Settings: @ 1 μM, antagonist mode, αβ-meATP 3 μM.
T1 construct: expressed in transfected cells; host or cells: HEK293
T1 sequence (P56373 1-397): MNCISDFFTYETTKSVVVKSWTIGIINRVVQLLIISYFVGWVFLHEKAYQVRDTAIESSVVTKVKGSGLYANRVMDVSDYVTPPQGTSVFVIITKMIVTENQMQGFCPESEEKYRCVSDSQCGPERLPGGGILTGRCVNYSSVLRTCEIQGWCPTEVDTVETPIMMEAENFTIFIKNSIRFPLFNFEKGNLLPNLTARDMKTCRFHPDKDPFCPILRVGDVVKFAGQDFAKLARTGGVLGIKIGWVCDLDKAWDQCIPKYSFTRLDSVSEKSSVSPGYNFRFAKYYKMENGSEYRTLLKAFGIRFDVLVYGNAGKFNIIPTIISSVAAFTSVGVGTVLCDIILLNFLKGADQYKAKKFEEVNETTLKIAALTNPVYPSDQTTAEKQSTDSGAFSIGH
Format: cell-based
Protocol: Example 59: P2X3 Antagonist Assay
HEK293 were transiently or stably transfected with human ion channel cDNAs as indicated in section 1. Stable transfectants were selected by coexpression with the antibiotic-resistance gene(s) incorporated into the expression plasmid(s). Selection pressure was maintained by including selection antibiotics in the culture medium. HEK293 cells were cultured in Dulbecco's Modified Eagle Medium/Nutrient Mixture F-12 (D-MEM/F-12) supplemented with 10% fetal bovine serum, 100 U/mL penicillin G sodium, 100 J·Lg/mL streptomycin sulfate and appropriate selection antibiotics.
The effect of each test article to act as an antagonist was evaluated. Each test article was evaluated at eight (8) concentrations (0.001, 0.003, 0.01, 0.03, 0.1, 0.3, 1 and 3 μM, n=3) with 4 replicates for each concentration. Experiments were performed with the FLIPR calcium sensitive dye kit (Fluo-8 dye, AAT, Bioquest) according to the manufacturer's instructions. • Dye-loading: Growth media will be removed and add 20 μL of Mg^++-free HBPS containing Fluo-8 for 30 min at 37° C. • Preincubation (FLIPR step 1): Adding 5× (5 μL) test, vehicle, or control article solutions in Mg^+-free HBPS to each well for 20 minutes at room temperature, protected from light. • Stimulation (FLIPR step 2): After pre-incubation, cells will be stimulated with 6× (5 μL) αβ-meATP at final concentration of 3 μM prepared in Mg^++-free HBPS. • Non-Specific Calcium Influx (FLIPR step 3): 5 minutes after stimulation solution addition, non-specific calcium influx will be activated by adding 7×(5 μL) ionomycin at a final concentration of 5 μM. Fluorescence will be recorded continuously during FLIPR steps 2 and 3. • Positive Control Antagonist: PPADS (1 mM).
Data acquisition was performed via the FLIPRControl software that is supplied with the FLIPR System (MDS-AT) and data was analyzed using Microsoft Excel2003 (Microsoft Corp., Redmond, WA).
With `CNC(=O)c1cc(F)c(-c2nc3cc(C)ccn3c2CC2COCCN(C(=O)OC)C2)c(F)c1` (single isomer, unassigned) [A16 (Peak 2), methyl 6-((2-(2,6-difluoro-4-(methylcarbamoyl)phenyl)-7-meth-ylimidazo[1,2-a]pyridin-3-yl)methyl)-1,4-oxazepane-4-carboxylate] the “P2X3 IC50 column, given as % @ 1 μM” value was 23% @ 1 μM.

Same assay, conditions: HEK293, @ 1 μM, antagonist mode, αβ-meATP 3 μM, read-out: P2X3 IC50 column, given as % @ 1 μM
`CNC(=O)c1cc(F)c(-c2nc3cc(C)ccn3c2CC2CCCCN(C(=O)OC)C2)c(F)c1` (single isomer, unassigned) [A17 (Peak 1), methyl 3-((2-(2,6-difluoro-4-(methylcarbamoyl)phenyl)-7-methylimidazo[1,2-a]pyridin-3-yl)methyl)azepane-1-carboxylate] gave an inhibition at 1 µM of 30%. Work on `CNC(=O)c1cc(F)c(-c2nc3cc(C)ccn3c2CC2CCCC(NC(C)=O)C2)c(F)c1` (single isomer, unassigned) [trans-A22 (Peak 1), 4-(3-((3-acetamidocyclohexyl)methyl)-7-methylimidazo[1,2-a]pyridin-2-yl)-3,5-difluoro-N-methylbenzamide] yielded an inhibition at 1 µM of 22%. Compound `CNC(=O)c1ccc(-c2nc3cc(C4CC4)ccn3c2C[C@H]2CN(C(=O)OC)CCO2)c(F)c1` [Compound A52, methyl (S)-2-((7-cyclopropyl-2-(2-fluoro-4-(methylcarbamoyl)-phenyl)imidazo[1,2-a]pyridin-3-yl)methyl)morpholine-4-carboxylate] has an inhibition at 1 µM of 50%. For `CNC(=O)c1cc(F)c(-c2nc3cc(C)ccn3c2CC2CCC(NC(C)=O)CC2)c(F)c1` (stereo not drawn) [cis-A21, 4-(3-((4-acetamidocyclohexyl)methyl)-7-methylimidazo[1,2-a]pyridin-2-yl)-3,5-difluoro-N-methylbenzamide], the inhibition at 1 µM was 20%.

Same assay, conditions: antagonist mode, αβ-meATP 3 μM
For `CNC(=O)c1ccc(-c2nc3cc([S+](C)[O-])ccn3c2C[C@H]2CN(C(=O)OC)CCO2)c(F)c1` (single isomer, unassigned) [A47 (Peak 2)], the IC50 was greater than 1000 nM. With `CCC(=O)N1CCO[C@@H](Cc2c(-c3ccc(C(=O)NC)cc3F)nc3cc(Cl)ccn23)C1` [Compound A89, (S)-4-(7-chloro-3-((4-propionylmorpholin-2-yl)methyl)imidazo-[1,2-a]pyridin-2-yl)-3-fluoro-N-methylbenzamide] the IC50 was 100 to 1000 nM. In the case of `CNC(=O)c1ccc(-c2nc3cc(C)ccn3c2C[C@H]2CN(C(=O)OC)CCO2)c(Cl)c1` [Compound A8, methyl (S)-2-((2-(2-chloro-4-(methylcarbamoyl)phenyl)-7-methyl-imidazo[1,2-a]pyridin-3-yl)methyl)morpholine-4-carboxylate], the IC50 is reported as less than 100 nM. Work on `CNC(=O)c1ccc(-c2nc3cc(C(O)C(F)(F)F)ccn3c2C[C@H]2CN(C(=O)OC)CCO2)c(F)c1` (single isomer, unassigned) [A46 (Peak 1)] yielded an IC50 greater than 1000 nM. `CNC(=O)c1cc(F)c(-c2nc3cc(C)ncn3c2C[C@H]2CN(C(=O)OC)CCO2)c(F)c1` [Compound A29, methyl (S)-2-((2-(2,6-difluoro-4-(methylcarbamoyl)phenyl)-7-methylimidazo[1,2-c]pyrimidin-3-yl)methyl)morpholine-4-carboxylate] gave an IC50 of less than 100 nM. `CNC(=O)c1cc(F)c(-c2nc3cc(C)ccn3c2CC2CCCC(NC(C)=O)C2)c(F)c1` (single isomer, unassigned) [cis-A22 (Peak 2), 4-(3-((3-acetamidocyclohexyl)methyl)-7-methylimidazo[1,2-a]pyridin-2-yl)-3,5-difluoro-N-methylbenzamide] showed an IC50 of less than 100 nM. `CNC(=O)c1cc(F)c(-c2nc3cc(C)ccn3c2C[C@@H]2CCCN(C(=O)OC)C2)c(F)c1` [(S)-A19, methyl (S)-3-((2-(2,6-difluoro-4-(methylcarbamoyl)phenyl)-7-methylimidazo[1,2-a]pyridin-3-yl)methyl)piperidine-1-carboxylate] was tested, and the IC50 was less than 100 nM. Compound `COC(=O)N1CCO[C@@H](Cc2c(-c3ccc(S(C)(=O)=O)cc3F)nc3cc(C)ccn23)C1` [Compound A61, methyl (S)-2-((2-(2-fluoro-4-(methylsulfonyl)phenyl)-7-methylimidazo[1,2-a]pyridin-3-yl)methyl)morpholine-4-carboxylate] has an IC50 of 100 to 1000 nM. `CNC(=O)c1ccc(-c2nc3cc(C(F)F)ccn3c2C[C@H]2CN(C(=O)OC)CCO2)c(C)c1` [Compound A43, methyl (S)-2-((7-(difluoromethyl)-2-(2-methyl-4-(methylcarbamoyl)phenyl)imidazo[1,2-a]pyridin-3-yl)methyl)morpholine-4-carboxylate] was tested, and the IC50 was less than 100 nM. `CNC(=O)c1cc(F)c(-c2nc3cc(C(F)(F)F)ccn3c2C[C@H]2CN(C(=O)OC)CCO2)c(F)c1` [Compound A5, methyl (S)-2-((2-(2,6-difluoro-4-(methylcarbamoyl)phenyl)-7-(trifluoromethyl)imidazo[1,2-a]pyridin-3-yl)methyl)morpholine-4-carboxylate] gave an IC50 of 100 to 1000 nM. For `CCN(C)C(=O)c1ccc(-c2nc3cc(Cl)ccn3c2C[C@H]2CN(C(=O)OC)CCO2)c(F)c1` [Compound A66, methyl (S)-2-((7-chloro-2-(4-(ethyl(methyl)carbamoyl)-2-fluoro-phenyl)imidazo[1,2-a]pyridin-3-yl)methyl)morpholine-4-carboxylate], the IC50 was less than 100 nM. With `CNC(=O)c1cc(F)c(-c2[nH]c3cccc(C)c3c2C[C@H]2CN(C(=O)OC)CCO2)c(F)c1` [Compound A31, methyl (S)-2-((2-(2,6-difluoro-4-(methylcarbamoyl)phenyl)-4-methyl-1H-indol-3-yl)methyl)morpholine-4-carboxylate] the IC50 was greater than 1000 nM. For `CNC(=O)c1cc(F)c(-c2nc3cc(C)ccn3c2CC2CCCN(C(=O)OC)CC2)c(F)c1` (single isomer, unassigned) [A18 (Peak 1), methyl 4-((2-(2,6-difluoro-4-(methylcarbamoyl)phenyl)-7-methylimidazo[1,2-a]pyridin-3-yl)methyl)azepane-1-carboxylate], the IC50 was less than 100 nM. `COC(=O)N1CCO[C@@H](Cc2c(-c3ccc(C(=O)N(C)C)cc3F)nc3cc(Cl)ccn23)C1` [Compound A65, methyl (S)-2-((7-chloro-2-(4-(dimethylcarbamoyl)-2-fluoro-phenyl)imidazo[1,2-a]pyridin-3-yl)methyl)morpholine-4-carboxylate] showed an IC50 of 100 to 1000 nM. `CNC(=O)c1ccc(-c2nc3cc(C(F)F)ccn3c2C[C@H]2CN(C(=O)OC)CCO2)c(Cl)c1` [Compound A32, methyl (S)-2-((2-(2-chloro-4-(methylcarbamoyl)phenyl)-7-(di-fluoromethyl)imidazo[1,2-a]pyridin-3-yl)methyl)morpholine-4-carboxylate] was tested, and the IC50 was less than 100 nM. `CNC(=O)c1ccc(-c2nc3cc(C(F)F)ccn3c2C[C@H]2CN(C(=O)OC)CCO2)c(F)c1` [Compound A42, methyl (S)-2-((7-(difluoromethyl)-2-(2-fluoro-4-(methylcarbamoyl)phenyl)imidazo[1,2-a]pyridin-3-yl)methyl)morpholine-4-carboxylate] was tested, and the IC50 was less than 100 nM. Compound `CNC(=O)c1ccc(-c2nc3cc(CF)ccn3c2C[C@H]2CN(C(=O)OC)CCO2)c(F)c1` [Compound A49, methyl (S)-2-((2-(2-fluoro-4-(methylcarbamoyl)phenyl)-7-(fluoromethyl)imidazo[1,2-a]pyridin-3-yl)methyl)morpholine-4-carboxylate] has an IC50 of 100 to 1000 nM. `CNC(=O)c1cc(C)c(-c2nc3cc(Cl)ccn3c2C[C@H]2CN(C(=O)OC)CCO2)cc1F` [Compound A13, methyl (S)-2-((7-chloro-2-(5-fluoro-2-methyl-4-(methylcarbamoyl)phenyl)imidazo[1,2-a]pyridin-3-yl)methyl)morpholine-4-carboxylate] showed an IC50 of less than 100 nM. `COC(=O)N1CCO[C@@H](Cc2c(-c3ccc(C(=O)N4CCCC4)cc3F)nc3cc(Cl)ccn23)C1` [Compound A67, methyl (S)-2-((7-chloro-2-(2-fluoro-4-(pyrrolidine-1-carbonyl)-phenyl)imidazo[1,2-a]pyridin-3-yl)methyl)morpholine-4-carboxylate] gave an IC50 of 100 to 1000 nM. In the case of `CNC(=O)c1cc(F)c(-c2nc3cc(C)ccn3c2CC2CN(C(=O)OC)CCCO2)c(F)c1` (single isomer, unassigned) [A14 (Peak 2), methyl 2-((2-(2,6-difluoro-4-(methylcarbamoyl)phenyl)-7-methylimidazo[1,2-a]pyridin-3-yl)methyl)-1,4-oxazepane-4-carboxylate], the IC50 is reported as less than 100 nM.
